# Measurements from US6204293A, “Inhibitors of protein isoprenyl transferases” (University of Pittsburgh, priority 1998, dated 2001).
# Structures can show the parent of a compound that is named as a salt.
# Target: T1, Rat brain protein farnesyltransferase (Rattus norvegicus, UniProt Q02293+Q04631)
# T1 construct: Rat brain protein farnesyltransferase activity is measured; from tissue; host or cells: rat brain
# Assay: % inhibition of farnesylation, scintillation proximity assay with biotin-K Ras B fragment
# Format: biochemical
# Conditions: Table 1; 1 × 10^-5 M
# Description: The ability of the compounds of the invention to inhibit protein farnesyltransferase or protein geranylgeranyltransferase can be measured according to the method of Moores, et al., J. Biol. Chem. 266: 14603 (1991) or the method of Vogt, et al., J. Biol. Chem. 270:660-664 (1995). In addition, procedures for determination of the inhibition of farnesylation of the oncogene protein Ras are described by Goldstein, et al., J. Biol. Chem., 266:15575-15578 (1991) and by Singh in U.S. Pat. No. 5,245,061.
# In addition, in vitro inhibition of protein farnesyltransferase may be measured by the following procedure. Rat brain protein farnesyltransferase activity is measured using an Amersham Life Science commercial scintillation proximity assay kit and substituting a biotin-K Ras B fragment (biotin-[…]CO2 H), 0.1 mM final concentration, for the biotin-lamin substrate provided by Amersham. The enzyme is purified according to Reiss, Y., et al., Cell, 62: 81-88 (1990), utilizing steps one through three.
# The % inhibition of protein farnesyltransferase was determined for representative compounds of the invention.
# T1 sequence (Q02293 whole entry, one chain of several): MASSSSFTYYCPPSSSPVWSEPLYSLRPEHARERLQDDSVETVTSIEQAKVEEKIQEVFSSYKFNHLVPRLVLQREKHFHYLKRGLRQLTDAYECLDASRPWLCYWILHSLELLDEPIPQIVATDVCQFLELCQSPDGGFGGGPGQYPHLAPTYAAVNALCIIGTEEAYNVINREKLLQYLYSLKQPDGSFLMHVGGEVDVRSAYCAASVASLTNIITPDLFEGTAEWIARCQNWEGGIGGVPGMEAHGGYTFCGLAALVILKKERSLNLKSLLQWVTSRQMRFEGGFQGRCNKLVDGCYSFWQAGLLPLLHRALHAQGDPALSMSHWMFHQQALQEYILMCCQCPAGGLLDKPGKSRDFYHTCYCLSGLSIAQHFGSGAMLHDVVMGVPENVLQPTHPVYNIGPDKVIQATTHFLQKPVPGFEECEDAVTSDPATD
row,% inhibition at 1 × 10^-5 M [%],SMILES
1,69,CCn1cc(NCc2ccc(C(=O)N[C@@H](CCSC)C(=O)O)c(-c3ccccc3)c2)c(=O)n1CC [Example 364]
2,97,CSCC[C@H](NC(=O)c1ccc(CNCCN2CCOCC2)cc1-c1ccccc1)C(=O)O [Example 365]
3,83,CSCC[C@H](NC(=O)c1ccc(CNCCN2CCCCC2)cc1-c1ccccc1)C(=O)O [Example 366]
4,87,CSCC[C@H](NC(=O)c1ccc(CNCCc2cccs2)cc1-c1ccccc1)C(=O)O [Example 369]

# Same assay, conditions: Table 2; 1 × 10^-6 M
row,SMILES,% inhibition at 1 × 10^-6 M [%]
1,CCCCON(CCC1CCCCC1)Cc1ccc(C(=O)N[C@@H](CCS(C)(=O)=O)C(=O)O)c(-c2ccccc2C)c1 [Example 298],43
2,CCCCN(C)N(CCC1CCCCC1)Cc1ccc(C(=O)N[C@@H](CCS(C)(=O)=O)C(=O)O)c(-c2ccccc2C)c1 [Example 300],22
3,CSCC[C@H](NC(=O)c1ccc(CN(C)C(CC2CCCCC2)C(=O)N2CCCCC2)cc1-c1ccccc1C)C(=O)O (stereo partly drawn) [Example 301],98
4,CSCC[C@H](NC(=O)c1ccc(CNC(C)(C)CC2CCCCC2)cc1-c1ccccc1C)C(=O)O [Example 308],62
5,Cc1ccccc1-c1cc(CNC(C)(C)Cc2ccccc2)ccc1C(=O)N[C@@H](CCS(C)(=O)=O)C(=O)O [Example 311],97
6,Cc1ccccc1-c1cc(CN(C)C(C)(C)Cc2ccccc2)ccc1C(=O)N[C@@H](CCS(C)(=O)=O)C(=O)O [Example 313],94
7,Cc1ccccc1-c1cc(CN(C)C(C)(C)CC2CCCCC2)ccc1C(=O)N[C@@H](CCS(C)(=O)=O)C(=O)O [Example 314],97
8,CSCC[C@H](NC(=O)c1ccc(CN(C2CC2)C(C)(C)Cc2ccccc2)cc1-c1ccccc1C)C(=O)O [Example 315],93
9,CSCC[C@H](NC(=O)c1ccc(CN(C2CC2)C(C)(C)CC2CCCCC2)cc1-c1ccccc1C)C(=O)O [Example 316],63
10,CSCC[C@H](NC(=O)c1ccc(CN(C(C)C)C(C)(C)Cc2ccccc2)cc1-c1ccccc1C)C(=O)O [Example 317],54
11,CSCC[C@H](NC(=O)c1ccc(CN(C(C)C)C(C)(C)CC2CCCCC2)cc1-c1ccccc1C)C(=O)O [Example 318],98
12,Cc1ccccc1-c1cc(CN(C2CC2)C(C)(C)Cc2ccccc2)ccc1C(=O)N[C@@H](CCS(C)(=O)=O)C(=O)O [Example 319],98
13,Cc1ccccc1-c1cc(CN(C2CC2)C(C)(C)CC2CCCCC2)ccc1C(=O)N[C@@H](CCS(C)(=O)=O)C(=O)O [Example 320],93
14,CSCC[C@H](NC(=O)c1ccc(CN(C2CC2)C2(CC3CCCCC3)CC2)cc1-c1ccccc1C)C(=O)O [Example 324],98
15,CSCC[C@H](NC(=O)c1ccc(CN(C(C)C)C2(Cc3ccccc3)CC2)cc1-c1ccccc1C)C(=O)O [Example 325],99
16,CSCC[C@H](NC(=O)c1ccc(CN(C(C)C)C2(CC3CCCCC3)CC2)cc1-c1ccccc1C)C(=O)O [Example 326],91
17,CSCC[C@H](NC(=O)c1ccc(CN(C2CC2)C2(Cc3ccccc3)CCC2)cc1-c1ccccc1C)C(=O)O [Example 329],98
18,CSCC[C@H](NC(=O)c1ccc(CN(C2CC2)C2(CC3CCCCC3)CCC2)cc1-c1ccccc1C)C(=O)O [Example 330],98
19,CSCC[C@H](NC(=O)c1ccc(CN(C(C)C)C2(Cc3ccccc3)CCC2)cc1-c1ccccc1C)C(=O)O [Example 331],98
20,CSCC[C@H](NC(=O)c1ccc(CN(C(C)C)C2(CC3CCCCC3)CCC2)cc1-c1ccccc1C)C(=O)O [Example 332],26
21,Cc1ccccc1-c1cc(CN(C2CC2)C2(Cc3ccccc3)CCC2)ccc1C(=O)N[C@@H](CCS(C)(=O)=O)C(=O)O [Example 333],99
22,Cc1ccccc1-c1cc(CN(C2CC2)C2(CC3CCCCC3)CCC2)ccc1C(=O)N[C@@H](CCS(C)(=O)=O)C(=O)O [Example 334],93
23,CSCC[C@H](NC(=O)c1ccc(CN(C(C)C)C2(Cc3ccccc3)CCCC2)cc1-c1ccccc1C)C(=O)O [Example 343],72
24,CSCC[C@H](NC(=O)c1ccc(CN(C(C)C)C2(CC3CCCCC3)CCCC2)cc1-c1ccccc1C)C(=O)O [Example 344],95
25,Cc1ccccc1-c1cc(CN(C2CC2)C2(Cc3ccccc3)CCCC2)ccc1C(=O)N[C@@H](CCS(C)(=O)=O)C(=O)O [Example 345],91
26,Cc1ccccc1-c1cc(CN(C2CC2)C2(CC3CCCCC3)CCCC2)ccc1C(=O)N[C@@H](CCS(C)(=O)=O)C(=O)O [Example 346],98
27,CSCC[C@H](NC(=O)c1ccc(CN2C(=O)OC[C@@H]2CC2CCCCC2)cc1-c1ccccc1C)C(=O)O [Example 349],99

# Continued, values first:
row,% inhibition at 1 × 10^-6 M [%],SMILES
1,12,CSCCC(NC(=O)c1ccc(NC(=O)Cc2cscn2)cc1-c1ccccc1)C(=O)O (stereo not drawn) [Example 162]
2,18,CSCC[C@H](NC(=O)c1ccc(NC(=O)Cc2nccs2)cc1-c1ccccc1)C(=O)O [Example 163]
3,92,COC(=O)[C@H](CCSC)NC(=O)c1ccc(NC(=O)[C@@H]2CSCN2)cc1-c1ccccc1.Cl [Example 164]
4,74,CSCC[C@H](NC(=O)c1ccc(NC(=O)[C@@H]2CSCN2)cc1-c1ccccc1)C(=O)O [Example 165]
5,97,CSCC[C@H](NC(=O)c1ccc(NC[C@@H]2CSCN2)cc1-c1ccccc1)C(=O)O.Cl [Example 166]
6,31,CSCC[C@H](NC(=O)c1ccc(NC(=O)C2CCC(=O)N2)cc1-c1ccccc1)C(=O)O (stereo partly drawn) [Example 202]
7,56,CSCCC(NC(=O)c1ccc(NC(=O)c2cncnc2)cc1-c1ccccc1)C(=O)O (stereo not drawn) [Example 219]
8,41,CSCC[C@H](NC(=O)c1ccc(N2CC(=O)NNC2=O)cc1-c1ccccc1)C(=O)O [Example 224]
9,50,CSCCC(NC(=O)c1ccc(NC(=O)C2CCCNC2)cc1-c1ccccc1)C(=O)O (stereo not drawn) [Example 231]
10,98,CSCC[C@H](NC(=O)c1ccc(NC(=O)C2=C(C(F)(F)F)C=CNC2)cc1-c1ccccc1)C(=O)O [Example 283]
11,84,CSCC[C@H](NC(=O)c1ccc(NCC2CNCCN2)cc1-c1ccccc1)C(=O)O (stereo partly drawn) [Example 286]
12,31,CSCC[C@H](NC(=O)c1ccc(CNCc2ccco2)cc1-c1ccccc1)C(=O)[O-].[Li+] [Example 302]
13,82,CSCC[C@H](NC(=O)c1ccc(CNC(C)(C)Cc2ccccc2)cc1-c1ccccc1C)C(=O)O [Example 307]
14,98,CSCC[C@H](NC(=O)c1ccc(CN(C)C(C)(C)Cc2ccccc2)cc1-c1ccccc1C)C(=O)O [Example 309]

# Same assay, conditions: read-out: % inhibition at 1 × 10^-6 M
row,SMILES,inhibition at 1 µM [%]
1,"CSCC[C@H](NC(=O)c1ccc(COCc2cccs2)cc1-c1ccccc1C)C(=O)O [Example 273, [4-(2-thienylmethoxymethyl)-2-(2-methylphenyl)benzoyl]methionine Lithium salt]",96
2,"CSCC[C@H](NC(=O)c1ccc(COCc2ccsc2)cc1-c1ccccc1C)C(=O)O [Example 274, [4-(3-thienylmethoxymethyl)-2-(2-methylphenyl)benzoyl]methionine Lithium salt]",94
3,"CSCC[C@H](NC(=O)c1ccc(COCc2ccc(-c3ccccc3)o2)cc1-c1ccccc1C)C(=O)O [Example 327, [4-(5-phenylfur-2-ylmethyloxymethyl)-2-(2-methylphenyl)benzoyl]methionine lithium salt]",97

# Same assay, conditions: read-out: % inhibition at 1 × 10^-6 M; Table 2; 1 × 10^-6 M
row,inhibition at 1 µM [%],SMILES
1,24,"CSCC[C@H](NC(=O)c1ccc(COCC2CCOC2)cc1-c1ccccc1)C(=O)O (stereo partly drawn) [Example 287, [4-(3-tetrahydrofurylmethyloxymethyl)-2-phenylbenzoyl]methionine]"
2,22,"CSCC[C@H](NC(=O)c1ccc(COCC2CCCO2)cc1-c1ccccc1)C(=O)O (stereo partly drawn) [Example 288, [4-(2-tetrahydrofurylmethyloxymethyl)-2-phenylbenzoyl]methionine]"
3,94,"CSCC[C@H](NC(=O)c1ccc(COCc2ccco2)cc1-c1ccccc1C)C(=O)O [Example 299, [4-(2-furylmethyloxymethyl)-2-(2-methylphenyl)benzoyl]methionine]"
4,90,"CSCC[C@H](NC(=O)c1ccc(COc2nc3ccccc3s2)cc1-c1ccccc1C)C(=O)O [Example 321, [4-(2-benzothiazolyloxymethyl)-2-(2-methylphenyl)benzoyl]methionine]"
5,98,"CSCC[C@H](NC(=O)c1ccc(CSc2nc3ccccc3o2)cc1-c1ccccc1C)C(=O)O [Example 322, [4-(2-benzoxazolylthiomethyl)-2-(2-methylphenyl)benzoyl]methionine]"
6,98,"CSCC[C@H](NC(=O)c1ccc(CSc2nc3ccccc3s2)cc1-c1ccccc1C)C(=O)O [Example 323, [4-(2-benzothiazolylthiomethyl)-2-(2-methylphenyl)benzoyl]methionine]"
